# Results published in patent US8680052B1, “Methods of treating, reducing the incidence of, and/or preventing ischemic events” (The Medicines Company, priority 2013, dated 2014).
# How the values were obtained:
# P2Y12 receptor [1] = molecular target: T1, P2Y12 receptor (Homo sapiens, UniProt Q9H244); assay: Example 4: VerifyNow P2Y12 assay, platelet reactivity in PRU; format: in vivo
# T1 construct: from tissue; host or cells: platelets in whole blood of patients
# Protocol: The study involved 12 patients who met the criteria of being 18-75 years of age, having coronary artery disease (CAD) documented by a previous MI or coronary revascularization, and taking 81 mg of aspirin daily. […] Use of non-steroidal anti-inflammatory agents was discouraged during study participation but not prohibited.
# Each patient was administered a 30 μg/kg bolus of cangrelor followed immediately by a 2 hr infusion at a rate of 4.0 μg/kg/min. A loading dose of ticagrelor (180 mg) was given after 0.5 hr or 1.25 hr (n=6 for each). Blood for pharmacodynamic platelet function studies was taken after 0.5 or 1.25 hr (corresponding to the time of ticagrelor load, n=6 for each), and then at 1.75, 2, 2.25, 2.5, 2.75, 3, 4, and 5.25 hr. Patients were assigned randomly to receive either 6 (n=6) or 7 (n=6) doses of ticagrelor to be taken every 12 hours following the discontinuation of the infusion of cangrelor. On study day 5, each patient was administered a 30 μg/kg bolus of cangrelor followed immediately by a 2 hr infusion at a rate of 4.0 μg/kg/min. Blood for pharmacodynamic assessment was taken after 1 and 2 hr. Adverse events were queried throughout study participation that ended with a telephone interview performed on study day 10-12.
# Pharmacodynamic assessment included light transmission aggregometry (LTA), VerifyNow® P2Y12 assay, vasodilator-stimulated phosphoprotein (VASP) index, and platelet activation measured with the use of flow cytometry. Assessment of LTA, VerifyNow®, and platelet activation with the use of flow cytometry was performed within 30 min of blood being taken. In the case of flow cytometry, samples were processed to fixation and then batched for analysis. For VASP, index samples were batched and processed as recommended by the vendor within 2 h of blood being taken. This approach limited the time from fixation of VASP index to flow analysis to less than 1 h.
# LTA induced by 5 μM and 20 μM adenosine diphosphate (ADP) was quantified ex vivo (i.e. in non-adjusted platelet rich plasma). Platelet-poor plasma was set as 100% aggregation, and both maximal (peak) and terminal (at 300 s) aggregation were measured with a PAP4 aggregometer (BioData, Horsham, Pa.). VerifyNow® P2Y12 assay (Accumetrics Inc, San Diego, Calif.) that measures the effects of drugs on the P2Y12 receptor by activating platelets with prostaglandin El in addition to ADP was used in accordance with the instructions provided by the manufacturer. Platelet reactivity was expressed in P2Y12 reaction units (PRU). Activation of platelets was identified with the use of flow cytometry as previously described.^17. And to determine the VASP index, a commercially available kit (Diagnostica Stago, Inc, Parsippany NJ) was used. ^17 Schneider D J, Sobel B E. Streamlining the design of promising clinical trials: in-vitro testing of antithrombotic regimens and multiple agonists of platelet activation. Coron Artery Dis. 2009; 20:175-8.
# [2] = system: patients with acute coronary syndromes undergoing PCI; assay: Example 2: bleeding (GUSTO, TIMI, ACUITY) and adverse events up to 48 hours; format: in vivo, human
# Excerpt: Multiple definitions of bleeding were used for full disclosure of bleeding risks associated with cangrelor: […] N Engl J Med 329:673-82 (1993); mild, moderate, or severe/life-threatening based on transfusion use and presence/absence of hemodynamic compromise); […] Investigators reported adverse and serious adverse events according to International Conference on Harmonization guidance (International Conference on Harmonization (ICH) Guidance Documents. U.S. Food and Drug Administration Web site. (Accessed on Oct. 8, 2009, at the FDA website beginning with “www.” and ending with “fda.gov/RegulatoryInformation/Guidances/ucm122049.htm”)).
# P2Y12 receptor [3] = molecular target: T1, P2Y12 receptor; assay: Example 2 substudy: platelet function by VerifyNow P2Y12 Assay; format: in vivo
# Protocol: Platelet function parameters were measured using the VerifyNow® P2Y12 Assay (Accumetrics, San Diego, Calif.). Samples were taken before study drug administration, at approximately 2 hours (during cangrelor/placebo infusion), and 10 hours or next day following randomization.
# [4] = reference 5.25 h, Ticagrelor at 0.5 h
# [5] = reference 5.25 h, Ticagrelor at 1.25 h
# T1 sequence (Q9H244 whole entry): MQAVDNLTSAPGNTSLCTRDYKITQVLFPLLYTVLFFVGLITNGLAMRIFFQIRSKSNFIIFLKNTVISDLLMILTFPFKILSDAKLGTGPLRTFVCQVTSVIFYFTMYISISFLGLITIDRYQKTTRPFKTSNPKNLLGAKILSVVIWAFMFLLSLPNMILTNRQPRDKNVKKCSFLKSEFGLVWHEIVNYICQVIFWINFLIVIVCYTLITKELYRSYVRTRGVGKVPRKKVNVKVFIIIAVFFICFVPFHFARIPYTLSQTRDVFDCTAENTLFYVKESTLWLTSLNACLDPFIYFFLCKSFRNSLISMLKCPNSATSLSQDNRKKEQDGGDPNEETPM
compound,measurement,setting,value
CCCSc1nc(N[C@@H]2C[C@H]2c2ccc(F)c(F)c2)c2nnn([C@@H]3C[C@H](OCCO)[C@@H](O)[C@H]3O)c2n1 [ticagrelor],VerifyNow IPR,"P2Y12 receptor [1]; 2.25 h, All",89 ± 11
same,VerifyNow PRU,"P2Y12 receptor [1]; 2.25 h, All",28 ± 28 PRU
same,VerifyNow IPR,"P2Y12 receptor [1]; 2.25 h, Ticagrelor at 0.5 h",90 ± 10
same,VerifyNow PRU,"P2Y12 receptor [1]; 2.25 h, Ticagrelor at 0.5 h",28 ± 27 PRU
same,VerifyNow IPR,"P2Y12 receptor [1]; 2.25 h, Ticagrelor at 1.25 h",89 ± 14
same,VerifyNow PRU,"P2Y12 receptor [1]; 2.25 h, Ticagrelor at 1.25 h",28 ± 32 PRU
same,VerifyNow IPR,"P2Y12 receptor [1]; 2.5 h, All",70 ± 31
same,VerifyNow PRU,"P2Y12 receptor [1]; 2.5 h, All",76 ± 79 PRU
same,VerifyNow IPR,"P2Y12 receptor [1]; 2.5 h, Ticagrelor at 0.5 h",78 ± 24
same,VerifyNow PRU,"P2Y12 receptor [1]; 2.5 h, Ticagrelor at 0.5 h",60 ± 64 PRU
same,VerifyNow IPR,"P2Y12 receptor [1]; 2.5 h, Ticagrelor at 1.25 h",62 ± 37
same,VerifyNow PRU,"P2Y12 receptor [1]; 2.5 h, Ticagrelor at 1.25 h",93 ± 94 PRU
same,VerifyNow IPR,"P2Y12 receptor [1]; 2.75 h, All",83 ± 21
same,VerifyNow PRU,"P2Y12 receptor [1]; 2.75 h, All",44 ± 50 PRU
same,VerifyNow IPR,"P2Y12 receptor [1]; 2.75 h, Ticagrelor at 0.5 h",84 ± 15
same,VerifyNow PRU,"P2Y12 receptor [1]; 2.75 h, Ticagrelor at 0.5 h",44 ± 40 PRU
same,VerifyNow IPR,"P2Y12 receptor [1]; 2.75 h, Ticagrelor at 1.25 h",82 ± 27
same,VerifyNow PRU,"P2Y12 receptor [1]; 2.75 h, Ticagrelor at 1.25 h",44 ± 62 PRU
same,VerifyNow IPR,"P2Y12 receptor [1]; 3 h, All",88 ± 19
same,VerifyNow PRU,"P2Y12 receptor [1]; 3 h, All",31 ± 46 PRU
same,VerifyNow IPR,"P2Y12 receptor [1]; 3 h, Ticagrelor at 0.5 h",87 ± 16
same,VerifyNow PRU,"P2Y12 receptor [1]; 3 h, Ticagrelor at 0.5 h",35 ± 42 PRU
same,VerifyNow IPR,"P2Y12 receptor [1]; 3 h, Ticagrelor at 1.25 h",88 ± 23
same,VerifyNow PRU,"P2Y12 receptor [1]; 3 h, Ticagrelor at 1.25 h",28 ± 53 PRU
same,VerifyNow IPR,"P2Y12 receptor [1]; 4 h, All",96 ± 4
same,VerifyNow PRU,"P2Y12 receptor [1]; 4 h, All",10 ± 10 PRU
same,VerifyNow IPR,"P2Y12 receptor [1]; 4 h, Ticagrelor at 0.5 h",97 ± 2
same,VerifyNow PRU,"P2Y12 receptor [1]; 4 h, Ticagrelor at 0.5 h",7.3 ± 4.4 PRU
same,VerifyNow IPR,"P2Y12 receptor [1]; 4 h, Ticagrelor at 1.25 h",95 ± 5
same,VerifyNow PRU,"P2Y12 receptor [1]; 4 h, Ticagrelor at 1.25 h",14 ± 14 PRU
same,VerifyNow IPR,"P2Y12 receptor [1]; reference 5.25 h, All",96 ± 4
same,VerifyNow PRU,"P2Y12 receptor [1]; reference 5.25 h, All",9.5 ± 9.7 PRU
same,VerifyNow IPR,P2Y12 receptor [1]; [4],97 ± 2
same,VerifyNow PRU,P2Y12 receptor [1]; [4],7.7 ± 5.3 PRU
same,VerifyNow IPR,P2Y12 receptor [1]; [5],96 ± 4
same,VerifyNow PRU,P2Y12 receptor [1]; [5],11 ± 7 PRU
"COC(=O)[C@H](c1ccccc1Cl)N1CCc2sccc2C1 [Clopidogrel, clopidogrel, reference compound]",ACUITY criteria Major bleeding,"[2]; 48-hour, safety population",126 (2.9) no. (%)
same,ACUITY criteria Minor bleeding,"[2]; 48-hour, safety population",663 (15.2) no. (%)
same,Access site bleeding requiring radiologic or surgical intervention,"[2]; 48-hour, safety population",10 (0.2) no. (%)
same,Any blood transfusion,"[2]; 48-hour, safety population",42 (1.0) no. (%)
same,Any platelet transfusion,"[2]; 48-hour, safety population",5 (0.1) no. (%)
same,Drop in hemoglobin and/or hematocrit,"[2]; 48-hour, safety population",63 (1.4) no. (%)
same,Ecchymosis,"[2]; 48-hour, safety population",234 (5.4) no. (%)
same,Epistaxis,"[2]; 48-hour, safety population",22 (0.5) no. (%)
same,GUSTO criteria Mild bleeding,"[2]; 48-hour, safety population",739 (16.9) no. (%)
same,GUSTO criteria Moderate bleeding,"[2]; 48-hour, safety population",34 (0.8) no. (%)
same,GUSTO criteria Severe/life-threatening bleeding,"[2]; 48-hour, safety population",11 (0.3) no. (%)
same,Hematoma <5 cm at puncture site,"[2]; 48-hour, safety population",222 (5.1) no. (%)
same,Hematoma ≧5 cm at puncture site,"[2]; 48-hour, safety population",76 (1.7) no. (%)
same,Hemodynamic compromise,"[2]; 48-hour, safety population",11 (0.3) no. (%)
same,Intracranial hemorrhage,"[2]; 48-hour, safety population",0 (0.0) no. (%)
same,Intraocular,"[2]; 48-hour, safety population",0 (0.0) no. (%)
same,Oozing at puncture site,"[2]; 48-hour, safety population",319 (7.3) no. (%)
same,Reoperation for bleeding,"[2]; 48-hour, safety population",1 (0.0) no. (%)
same,Retroperitoneal,"[2]; 48-hour, safety population",10 (0.2) no. (%)
same,TIMI criteria Major bleeding,"[2]; 48-hour, safety population",14 (0.3) no. (%)
same,TIMI criteria Minor bleeding,"[2]; 48-hour, safety population",26 (0.6) no. (%)
same,Thrombocytopenia,"[2]; 48-hour, safety population",7 (0.2) no. (%)
same,Dyspnea,"[2]; human, in vivo, 48 h",0.4%
same,Serious adverse events,"[2]; human, in vivo, 48 h",2.7%
same,discontinuation of study drug due to an adverse event,"[2]; human, in vivo, 48 h",0.5%
same,Reported adverse events,[2]; safety population,25.7%
same,median PRU (VerifyNow P2Y12 assay),P2Y12 receptor [3]; 12-24 hours after discontinuation of the cangrelor infusion,206 PRU
same,median PRU (VerifyNow P2Y12 assay),P2Y12 receptor [3]; during the study drug infusion (approx. 2 hours),277 PRU
